From patent US20230233569A1 (Revolution Medicines, Inc., priority 2020, published 2023)
Read-outs that look alike come from different tables or passages of the source.

Key:
KRAS G12S = KRAS G12S (Homo sapiens, UniProt P01116+P62937, G12S); assay: Ras-Raf disruption / FRET / MOA assay (BRAF RBD); assay type: biochemical; conditions: with Cyclophilin A
How it was run: (§1)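 TR-FRET in 25 mM HEPES pH 7.3, 100 mM NaCl, 5 mM MgCl2, 0.1% BSA, 0.002% Tween20 with 25 μM Cyclophilin A, 12.5 nM His6-Ras-GMPPNP, 50 nM GST-BRAF RBD; compound 10-point 3-fold series from 30 μM. After 3 h at 25 °C, Eu anti-His/APC anti-GST added for 1.5 h; IC50 from ratio decrease versus DMSO.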

KRAS G13D = KRAS G13D (Homo sapiens, UniProt P01116+P62937, G13D); assay: Ras-Raf disruption / FRET / MOA assay (BRAF RBD); assay type: biochemical; conditions: with Cyclophilin A
KRAS G13D, sequence (P01116 1-169 isoform P01116-2 G13D limits assumed): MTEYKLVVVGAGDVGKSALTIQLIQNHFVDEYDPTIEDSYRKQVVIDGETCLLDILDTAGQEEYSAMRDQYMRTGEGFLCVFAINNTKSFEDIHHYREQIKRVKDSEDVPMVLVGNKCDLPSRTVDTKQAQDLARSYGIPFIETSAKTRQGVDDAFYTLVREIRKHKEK
KRAS G13D, sequence (P62937 whole entry): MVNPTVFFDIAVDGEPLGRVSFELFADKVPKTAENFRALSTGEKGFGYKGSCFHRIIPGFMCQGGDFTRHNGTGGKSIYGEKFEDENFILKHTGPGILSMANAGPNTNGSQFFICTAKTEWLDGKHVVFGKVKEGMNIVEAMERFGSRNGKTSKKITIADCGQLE
How it was run: as §1

KRAS G12V = KRAS G12V (Homo sapiens, UniProt P01116+P62937, G12V); assay: Ras-Raf disruption / FRET / MOA assay (BRAF RBD); assay type: biochemical; conditions: with Cyclophilin A
KRAS G12V, sequence (P01116 1-169 isoform P01116-2 G12V limits assumed): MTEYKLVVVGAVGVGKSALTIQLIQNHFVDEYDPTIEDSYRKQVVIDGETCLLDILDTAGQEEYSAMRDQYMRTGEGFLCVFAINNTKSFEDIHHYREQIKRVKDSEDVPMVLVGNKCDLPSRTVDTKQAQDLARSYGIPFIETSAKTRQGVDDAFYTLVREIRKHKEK
KRAS G12V, sequence (P62937 whole entry): as the sequence (P62937 whole entry) above
How it was run: as §1

KRAS G13C = KRAS G13C (Homo sapiens, UniProt P01116+P62937, G13C); assay: Ras-Raf disruption / FRET / MOA assay (BRAF RBD); assay type: biochemical; conditions: with Cyclophilin A
KRAS G13C, sequence (P01116 1-169 isoform P01116-2 G13C limits assumed): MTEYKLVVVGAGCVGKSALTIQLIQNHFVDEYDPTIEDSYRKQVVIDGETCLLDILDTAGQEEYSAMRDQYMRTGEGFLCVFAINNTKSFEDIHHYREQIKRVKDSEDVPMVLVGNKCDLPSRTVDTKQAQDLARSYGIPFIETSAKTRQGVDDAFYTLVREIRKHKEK
KRAS G13C, sequence (P62937 whole entry): as the sequence (P62937 whole entry) above
How it was run: as §1

NRAS G12C = NRAS G12C (Homo sapiens, UniProt P01111+P62937, G12C); assay: Ras-Raf disruption / FRET / MOA assay (BRAF RBD); assay type: biochemical
NRAS G12C, sequence (P01111 whole entry G12C): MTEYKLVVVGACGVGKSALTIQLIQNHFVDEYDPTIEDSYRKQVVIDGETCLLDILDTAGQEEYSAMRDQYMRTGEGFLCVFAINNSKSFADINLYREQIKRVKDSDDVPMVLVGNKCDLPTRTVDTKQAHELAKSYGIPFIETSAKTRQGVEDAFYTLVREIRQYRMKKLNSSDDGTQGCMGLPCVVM
NRAS G12C, sequence (P62937 whole entry): as the sequence (P62937 whole entry) above
How it was run: as §1

KRAS WT = KRAS WT (Homo sapiens, UniProt P01116+P62937); assay: Ras-Raf disruption / FRET / MOA assay (BRAF RBD); assay type: biochemical; conditions: with Cyclophilin A
KRAS WT, sequence (P01116 1-169 isoform P01116-2 limits assumed): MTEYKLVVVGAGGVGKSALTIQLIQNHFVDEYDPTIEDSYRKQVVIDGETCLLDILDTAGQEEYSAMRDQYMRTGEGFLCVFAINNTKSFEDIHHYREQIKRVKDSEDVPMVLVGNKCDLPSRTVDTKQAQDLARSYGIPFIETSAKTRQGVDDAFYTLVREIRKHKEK
KRAS WT, sequence (P62937 whole entry): as the sequence (P62937 whole entry) above
How it was run: as §1

KRAS G12D = KRAS G12D (Homo sapiens, UniProt P01116+P62937, G12D); assay: Ras-Raf disruption / FRET / MOA assay (BRAF RBD); assay type: biochemical; conditions: with Cyclophilin A
KRAS G12D, sequence (P01116 1-169 isoform P01116-2 G12D limits assumed): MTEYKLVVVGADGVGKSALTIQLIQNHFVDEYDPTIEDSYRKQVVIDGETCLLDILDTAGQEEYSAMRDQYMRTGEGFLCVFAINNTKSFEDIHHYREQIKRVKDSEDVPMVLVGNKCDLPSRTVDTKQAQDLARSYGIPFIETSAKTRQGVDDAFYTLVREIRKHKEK
KRAS G12D, sequence (P62937 whole entry): as the sequence (P62937 whole entry) above
How it was run: as §1

NCI-H358 (K-Ras G12C) = assay: CellTiter-Glo cell viability assay; assay type: cell-based; conditions: Homo sapiens, NCI-H358, 120 h
How it was run: (§2)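 Viability is scored by CellTiter-Glo luminescence on day 5 of compound treatment, relative to vehicle (DMSO) wells set as 100%, with a four-parameter logistic fit.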

AsPC-1 (K-Ras G12D) [1] = assay: CellTiter-Glo cell viability assay; assay type: cell-based; conditions: Homo sapiens, ASPC1, 120 h
How it was run: as §2

KRAS G12C = KRAS G12C (Homo sapiens, UniProt P01116+P62937, G12C); assay: Ras-Raf disruption / FRET / MOA assay (BRAF RBD); assay type: biochemical; conditions: with Cyclophilin A
KRAS G12C, sequence (P01116 1-169 isoform P01116-2 G12C limits assumed): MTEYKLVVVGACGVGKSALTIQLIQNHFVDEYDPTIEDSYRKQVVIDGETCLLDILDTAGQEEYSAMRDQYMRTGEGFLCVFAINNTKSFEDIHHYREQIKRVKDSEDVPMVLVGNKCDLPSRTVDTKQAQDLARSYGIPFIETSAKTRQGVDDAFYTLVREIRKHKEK
KRAS G12C, sequence (P62937 whole entry): as the sequence (P62937 whole entry) above
How it was run: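 His6-K-Ras G12C-GMPPNP (12.5 nM), GST-BRAF RBD (50 nM) and tagless Cyclophilin A (25 μM) incubated 3 h at 25 °C with compound (10-point 3-fold series from 30 μM), pH 7.3 HEPES buffer. Anti-His Eu/anti-GST APC added for 1.5 h; decreased TR-FRET ratio vs DMSO gives IC50.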

AsPC-1 (K-Ras G12D) [2] = assay: Potency assay: pERK; assay type: cell-based; conditions: Homo sapiens
[3] = Ras-Raf disruption, read-out: KRAS G12S FRET data IC50
[4] = Ras-Raf disruption, read-out: KRAS G13D FRET data IC50
[5] = Ras-Raf disruption, read-out: KRAS G12V FRET data IC50
[6] = Ras-Raf disruption, read-out: KRAS G13C FRET data IC50
[7] = NRAS G12C, read-out: NRAS G12C FRET data IC50
[8] = Ras-Raf disruption, read-out: KRAS WT FRET data IC50
[9] = Ras-Raf disruption, read-out: KRAS G12D FRET data IC50
[10] = K-Ras G12C, 5-day treatment, read-out: H358 Cell Viability assay data IC50
[11] = K-Ras G12D, 5-day treatment, read-out: AsPC-1 Cell Viability assay data IC50
[12] = Ras-Raf disruption, read-out: KRAS G12C FRET data IC50
[13] = ASPC1, AsPC-1 KRAS G12D, read-out: pERK EC50
[14] = KRAS G12S FRET data IC50, Ras-Raf disruption
[15] = KRAS G13D FRET data IC50, Ras-Raf disruption
[16] = KRAS G12V FRET data IC50, Ras-Raf disruption
[17] = KRAS G13C FRET data IC50, Ras-Raf disruption
[18] = NRAS G12C FRET data IC50, NRAS G12C
[19] = KRAS WT FRET data IC50, Ras-Raf disruption
[20] = KRAS G12D FRET data IC50, Ras-Raf disruption
[21] = read-out: H358 Cell Viability assay data IC50, K-Ras G12C, 5-day treatment
[22] = read-out: AsPC-1 Cell Viability assay data IC50, K-Ras G12D, 5-day treatment
[23] = KRAS G12C FRET data IC50, Ras-Raf disruption

KRAS G12S, sequence (P01116 1-169 isoform P01116-2 G12S limits assumed): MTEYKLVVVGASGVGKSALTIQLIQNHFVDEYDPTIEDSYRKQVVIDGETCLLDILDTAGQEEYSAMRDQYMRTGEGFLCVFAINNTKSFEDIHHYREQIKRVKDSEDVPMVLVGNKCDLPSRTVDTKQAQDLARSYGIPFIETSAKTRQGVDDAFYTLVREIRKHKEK
KRAS G12S, sequence (P62937 whole entry): as the sequence (P62937 whole entry) above

SMILES	IC50 (KRAS G12S; [3])	IC50 (KRAS G13D; [4])	IC50 (KRAS G12V; [5])	IC50 (KRAS G13C; [6])	IC50 (NRAS G12C; [7])	IC50 (KRAS WT; [8])	IC50 (KRAS G12D; [9])	IC50 (NCI-H358 (K-Ras G12C); [10])	IC50 (AsPC-1 (K-Ras G12D) [1]; [11])	IC50 (KRAS G12S; [14])	IC50 (KRAS G13D; [15])	IC50 (KRAS G12V; [16])	IC50 (KRAS G13C; [17])	IC50 (NRAS G12C; [18])	IC50 (KRAS WT; [19])	IC50 (KRAS G12D; [20])	IC50 (NCI-H358 (K-Ras G12C); [21])	IC50 (AsPC-1 (K-Ras G12D) [1]; [22])	IC50 (KRAS G12C; [23])	EC50 (AsPC-1 (K-Ras G12D) [2]; ASPC1, read-out: pERK EC50)	also measured
CCn1c(-c2cccnc2[C@H](C)OC)c2c3cc(ccc31)-c1cc(O)cc(c1)C[C@H](NC(=O)[C@H](C1CCCC1)N(C)C(=O)[C@H]1CCN(C[C@H]3CN3)C1=O)C(=O)N1CCC[C@H](N1)C(=O)OCC(C)(C)C2 [Example 58]	10 to 100 nM	10 to 100 nM	10 to 100 nM	10 to 100 nM	< 10 nM	10 to 100 nM	100 to 1000 nM	< 10 nM	100 to 1000 nM	–	–	–	–	–	–	–	–	–	–	–	IC50 (KRAS G12C; [12]): < 10 nM; EC50 (AsPC-1 (K-Ras G12D) [2]; [13]): < 5000 nM
CCn1c(-c2cccnc2[C@H](C)OC)c2c3cc(ccc31)-c1cc(O)cc(c1)C[C@H](NC(=O)[C@H](C(C)C)N(C)C(=O)CN(C)C(=O)[C@@H]1N[C@H]1COC)C(=O)N1CCC[C@H](N1)C(=O)OCC(C)(C)C2 [Example 85]	–	–	–	–	–	–	–	–	–	10 to 100 nM	10 to 100 nM	10 to 100 nM	< 10 nM	10 to 100 nM	10 to 100 nM	100 to 1000 nM	10 to 100 nM	1000 to 10000 nM	10 to 100 nM	< 5000 nM	–
CCn1c(-c2cccnc2[C@H](C)OC)c2c3cc(ccc31)-c1cc(O)cc(c1)C[C@H](NC(=O)[C@H](C(C)C)N(C)C(=O)CN(C)C(=O)C1CN1CCOC)C(=O)N1CCC[C@H](N1)C(=O)OCC(C)(C)C2 (stereo partly drawn) [Example 90]	–	–	–	–	–	–	–	–	–	10 to 100 nM	100 to 1000 nM	10 to 100 nM	10 to 100 nM	< 10 nM	10 to 100 nM	100 to 1000 nM	< 10 nM	100 to 1000 nM	< 10 nM	< 5000 nM	–
CCn1c(-c2cccnc2[C@H](C)OC)c2c3cc(ccc31)-c1cc(O)cc(c1)C[C@H](NC(=O)[C@H](C1CCCC1)N(C)C(=O)CN(C)C(=O)[C@H]1CN1)C(=O)N1CCC[C@H](N1)C(=O)OCC(C)(C)C2 [Example 95]	–	–	–	–	–	–	–	–	–	10 to 100 nM	10 to 100 nM	10 to 100 nM	10 to 100 nM	< 10 nM	10 to 100 nM	10 to 100 nM	< 10 nM	10 to 100 nM	< 10 nM	< 5000 nM	–
CCn1c(-c2cccnc2[C@H](C)OC)c2c3cc(ccc31)-c1cc(O)cc(c1)C[C@H](NC(=O)[C@H](C(C)C)N(C)C(=O)[C@H](C)N(C)C(=O)[C@H]1CN1)C(=O)N1CCC[C@H](N1)C(=O)OCC(C)(C)C2 [Example 102]	–	–	–	–	–	–	–	–	–	100 to 1000 nM	100 to 1000 nM	100 to 1000 nM	10 to 100 nM	10 to 100 nM	10 to 100 nM	100 to 1000 nM	10 to 100 nM	100 to 1000 nM	10 to 100 nM	< 5000 nM	–
CCn1c(-c2cccnc2[C@H](C)OC)c2c3cc(ccc31)-c1cccc(c1)C[C@H](NC(=O)[C@H](C(C)C)N(C)C(=O)[C@H]1CCN(C(=O)[C@H]3CN3)C1)C(=O)N1CCC[C@H](N1)C(=O)OCC(C)(C)C2 [Example 106]	1000 to 10000 nM	1000 to 10000 nM	1000 to 10000 nM	100 to 1000 nM	10 to 100 nM	1000 to 10000 nM	1000 to 10000 nM	< 10 nM	1000 to 10000 nM	–	–	–	–	–	–	–	–	–	–	–	IC50 (KRAS G12C; [12]): 10 to 100 nM; EC50 (AsPC-1 (K-Ras G12D) [2]; [13]): < 5000 nM
